This passage reports IC50, pKa and Ratio IC50 results from ChEMBL document CHEMBL1139694, “N,N'-Diarylcyanoguanidines as antagonists of the CXCR2 and CXCR1 chemokine receptors” (Bioorg Med Chem Lett, 2006).

In general, IC50 refers to the point on the concentration scale where inhibition reaches its midpoint. Low readings indicate greater potency, high ones weaker potency. In general, pKa refers to the pH at which an ionisable group is half protonated. The low end stands for a stronger acid or weaker base, the high end for a weaker acid or stronger base.

Bounds are passed on as bounds.

The target in data set [1] is T1, C-X-C chemokine receptor type 2 (Homo sapiens, UniProt P25025).
T1 sequence (P25025 whole entry): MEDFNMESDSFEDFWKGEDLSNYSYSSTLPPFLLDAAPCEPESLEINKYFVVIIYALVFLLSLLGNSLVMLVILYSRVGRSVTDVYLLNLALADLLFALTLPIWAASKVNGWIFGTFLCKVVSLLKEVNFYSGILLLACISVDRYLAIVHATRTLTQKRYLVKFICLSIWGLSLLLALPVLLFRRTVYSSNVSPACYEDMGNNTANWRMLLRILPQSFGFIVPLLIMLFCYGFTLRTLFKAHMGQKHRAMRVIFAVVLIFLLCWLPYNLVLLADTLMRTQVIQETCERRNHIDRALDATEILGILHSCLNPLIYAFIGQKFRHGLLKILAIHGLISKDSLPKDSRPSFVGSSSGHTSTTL
The data set can be described thus: Displacement of [125I]IL8 from CXCR2 expressed in CHO cells. It is filed as cell-based. For orientation: Displacement assays read how much labelled ligand stays bound in the presence of the test substance.

Data set [2] has as its target T2, C-X-C chemokine receptor type 1 (Homo sapiens, UniProt P25024).
T2 sequence (P25024 whole entry): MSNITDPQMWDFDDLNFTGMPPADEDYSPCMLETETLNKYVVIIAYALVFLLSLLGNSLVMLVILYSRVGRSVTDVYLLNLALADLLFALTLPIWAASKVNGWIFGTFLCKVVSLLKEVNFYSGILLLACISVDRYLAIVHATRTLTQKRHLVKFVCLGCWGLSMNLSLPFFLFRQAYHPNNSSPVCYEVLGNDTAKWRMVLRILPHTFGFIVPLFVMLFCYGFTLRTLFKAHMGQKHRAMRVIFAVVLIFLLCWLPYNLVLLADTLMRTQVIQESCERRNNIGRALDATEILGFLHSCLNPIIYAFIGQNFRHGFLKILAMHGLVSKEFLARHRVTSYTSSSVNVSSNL
Description: Displacement of [125I]IL8 from CXCR1 expressed in CHO cells. It is filed as cell-based.

Data set [3] can be described thus: Dissociation constant, pKa of the compound. It is filed as physicochemical.
Data set [4] concerns the target Interleukin-8 receptors, CXCR1/CXCR2 (Homo sapiens) (UniProt P25025+P25024). Description: Selectivity for CXCR2 over CXCR1. It is filed as protein assay.

For the compound `CN(C)S(=O)(=O)c1c(C(F)(F)F)ccc(N/C(=N/C#N)Nc2ccccc2Br)c1O`, the 50% inhibitory concentration (IC50) is on record as 7 nM (antagonist) in data set [1] and 100 nM (antagonist) in data set [2].

As for `CCC(CC)(NS(=O)(=O)c1c(Cl)ccc(N=C(NC#N)Nc2ccccc2C)c1O)N1C[C@@H](C)O[C@@H](C)C1`, the IC50 was 17 nM (antagonist) in data set [1] and 1080 nM in data set [2].

Take `CCC(CC)(NS(=O)(=O)c1cccc(N/C(=N/C#N)Nc2ccccc2Br)c1O)N1CCOCC1`: the IC50 was 12 nM (antagonist) in data set [1] and 582 nM (antagonist) in data set [2]. The compound further gave a pKa in data set [3] of 6.48.

Turning to `CN(C)S(=O)(=O)c1c(Cl)ccc(N=C(NC#N)Nc2ccccc2C(F)(F)F)c1O`, the concentration for half-maximal inhibition (IC50) is 12 nM (antagonist) in data set [1] and 411 nM (antagonist) in data set [2].

Turning to `CC(C)c1ccccc1N/C(=N\C#N)Nc1ccc(Cl)c(S(=O)(=O)N(C)C)c1O`, the values for the 50% inhibitory concentration (IC50) in data set [1] and in data set [2] were 112 nM (antagonist) and 7290 nM, respectively.

In the case of `CN(C)S(=O)(=O)c1c(F)ccc(N/C(=N/C#N)Nc2ccccc2Br)c1O`, the values for the concentration for half-maximal inhibition (IC50) in data set [1] and in data set [2] were 4 nM (antagonist) and 192 nM (antagonist), respectively.

For the compound `CCC(CC)(NS(=O)(=O)c1c(Cl)ccc(N/C(=N/C#N)Nc2ccccc2Br)c1O)N1CCC(N)CC1`, the IC50 is listed as 22 nM (antagonist) in data set [1] and 188 nM (antagonist) in data set [2].

`CCC(CC)(NS(=O)(=O)c1c(Cl)ccc(N/C(=N/C#N)Nc2ccccc2Br)c1O)N1C[C@@H](C)O[C@@H](C)C1`: the IC50 is listed as 9 nM (antagonist) in data set [1] and 215 nM (antagonist) in data set [2]. The pKa in data set [3] stood at 6.41.

On to `Cc1ccc(N=C(NC#N)Nc2ccccc2Br)c(O)c1S(=O)(=O)N(C)C`, for which the IC50 in data set [1] is recorded as 7 nM (antagonist); in data set [2], 187 nM (antagonist).

Regarding `CN(C)S(=O)(=O)c1c(Cl)ccc(N/C(=N/C#N)Nc2ccccc2-c2ccccc2)c1O`, the half-inhibitory concentration (IC50) in data set [1] was 13 nM (antagonist); in data set [2], 752 nM (antagonist).

As for `CN(C)S(=O)(=O)c1c(Cl)ccc(N/C(=N/C#N)Nc2ccccc2Br)c1O`, the results for the IC50 in data set [1] and in data set [2] were 5 nM (antagonist) and 55 nM (antagonist), respectively.

With `CCc1ccccc1NC(=Nc1ccc(Cl)c(S(=O)(=O)N(C)C)c1O)NC#N`, the IC50 in data set [1] is listed as 15 nM (antagonist); in data set [2], 512 nM (antagonist).

On to `CN(C)S(=O)(=O)c1c(Cl)ccc(N/C(=N/C#N)Nc2cccc(Cl)c2F)c1O`, for which the Ratio IC50 in data set [4] is greater than 200.

Regarding `CCC(CC)(NS(=O)(=O)c1c(Cl)ccc(N/C(=N/C#N)Nc2ccccc2Br)c1O)N1CCC[C@@H]1C(=O)O`, the IC50 in data set [1] is 16 nM (antagonist); in data set [2], 22 nM (antagonist).

Regarding `CCC(CC)(NS(=O)(=O)c1c(C)ccc(N=C(NC#N)Nc2ccccc2Br)c1O)N1CCOCC1`, the concentration for half-maximal inhibition (IC50) in data set [1] is 6 nM (antagonist); in data set [2] it was 104 nM (antagonist).

Consider `CN(C)S(=O)(=O)c1c(Cl)ccc(N=C(NC#N)Nc2ccccc2F)c1O`, for which the IC50 in data set [1] was 9 nM (antagonist); in data set [2] it was 1550 nM.

For the compound `CN(C)S(=O)(=O)c1c(Cl)ccc(N=C(NC#N)Nc2cccc(Cl)c2F)c1O`, the IC50 in data set [1] is 29 nM (antagonist); in data set [2] it was 6200 nM.

Take `CN(C)S(=O)(=O)c1c(Cl)ccc(N/C(=N/C#N)Nc2ccccc2OCc2ccccc2)c1O`: the IC50 is on record as 9 nM (antagonist) in data set [1] and 293 nM (antagonist) in data set [2].

As for `Cc1ccccc1NC(=Nc1ccc(Cl)c(S(=O)(=O)N(C)C)c1O)NC#N`, the concentration for half-maximal inhibition (IC50) in data set [1] is recorded as 17 nM (antagonist); in data set [2], 378 nM (antagonist).
